The text below walks through data of patent US20070238755A1, “Methods to treat and/or prevent radiation- and/or chemical-induced toxicity in non-malignant tissue” (priority 2005, published 2007).

Type in all cases: in vivo, male Sprague-Dawley rats
For assay [1], the system named is irradiated rats (locally irradiated scrotal hernia containing a loop of distal ileum). The experiment in a line: Structural radiation injury (Radiation Injury Score) in the scrotal hernia intestinal fibrosis model, Experiment 1. Particulars: 10 or 15 mg/kg/day s.c. for 24 days (Day -1 to Day 23); 5 Gy for 9 days; compared to vehicle; p=0.003 Jonckheere-Terpstra test; FIG. 1. The source says:
(§1) A particularly relevant animal model for radiation toxicity is described in Wang et al., J Thromb Haemost, 2(11):2027-2035 (2004)). In brief, a “scrotal hernia” containing a 4 cm loop of distal ileum is surgically created in male Sprague-Dawley rats. After a 3 week recovery period, the scrotal hernia is irradiated locally without exposing the rest of the animal to ionizing radiation.
(§2) Scrotal hernias were created in rats which subsequently received one of three different treatments subcutaneously: (i) vehicle control (i.e., 0.4% methyl cellulose); (ii) 10 mg/kg/day of Formula 2; and (iii) 15 mg/kg/day of Formula 2. […] After an additional 2 week observation period following treatment, the rats were euthanized and assessed for radiation toxicity using these endpoints: structural radiation injury, immunohistochemistry (e.g., neutrophil infiltration, collagen type III deposition, smooth muscle cell proliferation, extracellular matrix-associated TGF-β immunoreactivity, collagen type I deposition, macrophages (ED-2)), and morphomety.
Structural radiation injury was assessed in hematoxylin-eosin-stained sections using a radiation injury score system previously described (see, Langberg et al., Acta Oncol, 31(7):781-787 (1992); and Hauer-Jensen et al., Acta Radiol Oncol, 22(4):299-303 (1983)). […]

The test system is the same in assay [2]. Nature of the assay: Quantitative immunohistochemistry of irradiated intestine, intestinal fibrosis Experiment 1.
Excerpt: as §1
Scrotal hernias were created in rats which subsequently received one of three different treatments subcutaneously: (i) vehicle control (i.e., 0.4% methyl cellulose); (ii) 10 mg/kg/day of Formula 2; and (iii) 15 mg/kg/day of Formula 2. The treatments were administered for 24 days total, starting the day before irradiation (i.e., from Day-1 to Day 23). Beginning on Day 1, the scrotal hernia of each animal was irradiated locally by exposure to 5 Gy for 9 days. After an additional 2 week observation period following treatment, the rats were euthanized and assessed for radiation toxicity using these endpoints: structural radiation injury, immunohistochemistry (e.g., neutrophil infiltration, collagen type III deposition, smooth muscle cell proliferation, extracellular matrix-associated TGF-β immunoreactivity, collagen type I deposition, macrophages (ED-2)), and morphomety.
Quantitative immunohistochemistry was used to determine: (i) neutrophil infiltration by mycloperoxidase stalninig; (ii) intestinal smooth muscle cell proliferation using proliferation cell nuclear antigen (PCNA) labeling index; (iii) collagen deposition by staining for collagen types I and III; (iv) extracellular matrix-associated transforming growth factor (TGF)-β, and (v) macrophage ED-2. Immunohistochemical staining was performed with appropriate positive and negative controls using the avidin-biotin complex (ABC) technique previously described by Wang et al., J Thromb Haemost, 2(11):2027-2035 (2004). Primary antibodies, catalog numbers, incubation times, dilutions, and companies were: polyclonal antimyeloperoxidase antibody (A0398, 2 h, 1:100; Dako, Carpinteria, Calif., USA); monoclonal anti-PCNA antibody (NA03, 2 h, 1:100; Calbiochem, Cambridge, Mass., USA); polyclonal antibodies against collagen type I (1310-01, 2 h, 1:100 dilution; Southern Biotechnology Associates, Birmingham, Alab., USA); collagen type III (1330-01, 2 h, 1:100 dilution, Southern Biotechnology Associates); polyclonal rabbit anti-TGF-P antibody (AB-100-NA, 2 h, 1:300 dilution; R&D, Minneapolis, Minn., USA); and ED-2 (MCA342, 2 h, 1:100 dilution, Serotec, Rahway, N.C., USA).
Computerized image analysis was performed as previously described (see, Wang et al., Thromb Haemost, 87(1):122-128(2002); Wang et al., J Pharmacol Exp Ther, 297(1):35-42 (2001)). Neutrophil infiltration was assayed by identifying myeloperoxidase-positive cells as previously described (see, Wang et al., Thromb Haemost, 87(1):122-128(2002)). Areas positive for collagen types I and III deposition were measured as previously described 'see, Raviv et al., World J Urol, 15(l1):50-55 (1997); and Wang et al., Thromb Haemost, 87(1):122-128(2002)). Extracellular matrix-associated TGF-β immunoreactivity was measured as previously described (see, Richter et al., Radiother Oncol, 39(3):243-251 (1996)).
Differences in endpoints as a function of drug treatment (PAR-1 inhibitor vs. vehicle) were assessed using fixed-factor analysis of variance and post hoc comparisons with Newman-Keul's test (NCSS2000 for Windows 95, NCSS, Kaysville, Utah, USA). Univariate comparisons were performed with the Mann-Whitney U-test using StatXact 5 (Cytel Software, Cambridge, Mass., USA), a software package for exact non-parametric inference.

Assay [3] has the same test system. The experiment in a line: Morphometry of irradiated intestine, intestinal fibrosis Experiment 1. Particulars: trend is worded for vehicle-treated animals as compared to Formula 2-treated animals.
Excerpt: as §1
as §2, with “2. The treatments were administered for 24 days total, starting the day before irradiation (i.e., from Day-1 to Day 23).” for “2.”
The thickness of the intestinal wall proper (submucosa, muscularis externa, and subserosa, but excluding the mucosa) was measured with an eyepiece linear microruler. […]

Setting [4] is: trend is worded for vehicle-treated animals as compared to Formula 2-treated animals, p=0.4 Jonckheere-Terpstra test.

Each structure is given as a SMILES string.

Regarding `CCOC(=O)N[C@@H]1CC[C@@H]2[C@@H](C1)C[C@H]1C(=O)O[C@H](C)[C@H]1[C@H]2/C=C/c1ccc(-c2ccccn2)cn1` [Formula 2], the “structural radiation injury as measured by Radiation Injury Score” value in assay [1] is “less”. Further, the “collagen type III deposition” value in assay [2] (10 or 15 mg/kg/day s.c. for 24 days, 5 Gy for 9 days, compared to vehicle, p=0.005 Jonckheere-Terpstra test, FIG. 3) was “reduced”. In addition, in assay [2] (10 or 15 mg/kg/day s.c. for 24 days, 5 Gy for 9 days, compared to vehicle, p=0.04 Jonckheere-Terpstra test, FIG. 4), the “smooth muscle cell proliferation (PCNA positive cells)” value is given as “reduced”. Moreover, the “neutrophil infiltration (myeloperoxidase-positive cells)” value in assay [2] (10 or 15 mg/kg/day s.c. for 24 days, 5 Gy for 9 days, compared to vehicle, p=0.05 Jonckheere-Terpstra test, FIG. 2) is recorded as “reduced”. Moreover, the “extracellular matrix-associated TGF-β immunoreactivity” value in assay [2] (trend is worded for vehicle-treated animals as compared to Formula 2-treated animals, p=0.1 Jonckheere-Terpstra test) was “trend toward increased levels”. In assay [2] (setting [4]), the “collagen type I deposition” value was “trend toward increased levels” and the “macrophages (ED-2)” value is given as “trend toward increased levels”. Further, in assay [3] (p=0.2 Jonckheere-Terpstra test), the “intestinal wall thickening (thickness of the intestinal wall proper)” value is on record as “trend toward intestinal wall thickening in vehicle-treated animals”. In assay [3] (p=0.3 Jonckheere-Terpstra test), the serosal thickening entry is given as “trend toward serosal thickening in vehicle-treated animals”.
